Results on one sequence are retold here after patent US20010048926A1, “SYNTHETIC PEPTIDE VACCINES FOR DENTAL CARIES” (priority 1992, published 2001).

For one assay, the target named is T1, CAT peptide construct (Streptococcus mutans serotype c, UniProt P08987).
T1 construct: residues 442-462 of S. mutans GTF-B; purchased Applied Diagnostics, Foster City, Calif; host or cells: chemical solid phase synthesis
Nature of the assay: Cross-reactivity ELISA, plates coated with CAT peptide construct. As to conditions: day 63 sera; FIG. 4. The assay is classed as binding. How it is done:
(§1) Immunogenicity of Peptides: Sprague Dawley CD strain 43 day-old male rats (Charles River Laboratories) were used for injection. Six groups of 4-5 rats were injected subcutaneously in the vicinity of the salivary glands with 50 μg each of GGY, AND, SAND or CAT peptide constructs, 10 μg of GTF, or sham-immunized with buffer alone. The initial injection included complete Freund adjuvant (CFA; Difco); two subsequent injections at 21-day intervals included incomplete Freund adjuvant. Animals were bled prior to injection and 14-21 days after each injection. Serum from coagulated and centrifuged blood was stored frozen at −20° C. until use.
(§2) ELISA: Serum IgG and salivary IgA antibodies were tested by enzyme-linked immunosorbent assay (ELISA). Polystyrene microtiter plates (Flow Laboratories) were coated with […] of each peptide construct or 0.5 μg of S. sobrinus GTF. Antibody activity was then measured by incubation with 1:100 to 1:10^6 dilutions of sera, or 1:4 to 1:32 dilutions of saliva. […] Reactivity was recorded as absorbance (A405 nm) in a micro plate reader (Biotek Instruments). Data are reported as absorbance (A405 nm), reciprocal titer, or as ELISA units (EU) which were calculated relative to the levels of appropriate reference sera or salivas from Sprague Dawley rats thrice immunized with the respective peptide construct. […]
On the technique in general: ELISA stands for enzyme-linked immunosorbent assay.

The next assay deals with T2, AND peptide construct (Streptococcus mutans serotype c, UniProt P08987).
T2 construct: GGY and AND were 19-mer peptides; purchased Applied Diagnostics, Foster City, Calif; host or cells: chemical solid phase synthesis
The assay can be described thus: Cross-reactivity ELISA, plates coated with AND peptide construct. Format: binding. As to conditions: day 63 sera; FIG. 4. How it is done:
as §1, §2

The next assay concerns S. mutans SJ32. The assay can be described thus: Protection experiments: caries assessment (modified Keyes method) after S. mutans infection. The assay is classed as in vivo, Sprague-Dawley rats. The source says:
Experimental Protocol for Protection Experiments: Animals used in the present experiments were derived from germ-free Sprague-Dawley rats that had been reared in the isolator facility of Charles River Laboratories, Wilmington, Mass. (Area 051). […] These rats served as initial breeding stock for dams used in these experiments and were regularly monitored for absence of mutans streptococci. The progeny of the dams used for the present experiments were weaned at approximately 21 days and were subsequently fed high sucrose Diet 2000.
Two experiments were performed. Groups (n=11-12) of 23-26 day-old rats were subcutaneously (sc) injected in the salivary gland vicinity with (experiment 1) GGY (50 μg), AND (50 μg) or GTF(10 μg), or phosphate buffered saline (control animals), or (experiment 2) GGY (50 ;μg) or PBS. Each antigen was incorporated with complete Freund adjuvant in both experiments. Eight (experiment 1) or 14 (experiment 2) days later, rats were reinjected with PBS or with the same antigen and dose in incomplete Freund adjuvant. Six (experiment 1) or 12 (experiment 2) days after the second injection, animals were bled from the tail vein, and saliva was collected after injection of pilocarpine (1.0 mg/100 g body weight). Fourteen (experiment 1) or 11 (experiment 2) days after the second injection, all rats were orally infected with approximately 10^8 S. mutans for 3 consecutive days. Both experiments were terminated 63 days after initial infection.
Caries assessment: The extent and depth of carious lesions in all rat molar teeth (caries score) were microscopically evaluated by a modified Keyes method as previously described (Taubman et al., J. Immunol. 118:710-720 (1977)). Caries scores were determined separately on smooth and on sulcal dental surfaces.

T1 sequence (P08987 442-462 limits assumed): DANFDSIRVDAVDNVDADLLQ

GGYEFLLANDVDNSNPVVQ: the “reaction of serum IgG antibody with the CAT peptide” value on CAT peptide construct is listed as “low but significant reaction”. Besides, at AND peptide construct, the “reaction of serum IgG antibody with the AND peptide construct” value was “significant reaction”. Moreover, the “mean and median total, smooth surface, and occlusal caries scores vs sham-injected group” value in the assay with S. mutans SJ32 (both experiments) is on record as “lower than the respective scores of the sham-injected group”. Moreover, the “Total molar caries scores vs sham-injected groups” value with S. mutans SJ32 (both experiments, p<0.05) was “significantly lower”. Also, the “smooth surface caries vs sham-injected group” value in the assay with S. mutans SJ32 (experiment 1, GGY p<0.032, GTF p<0.045) is recorded as “Protection was most evident on smooth surfaces”; in the assay on S. mutans SJ32 (experiment 2, p<0.027), “Protection was most evident on smooth surfaces”. Moreover, the “protection after infection of rats with cariogenic S. mutans” value with S. mutans SJ32 (summary statement) was “significant protection”.
